According to the supplement of paper PMC10307832:

Key:
Test in all cases: relative viability (nuclei count vs DMSO), 5 days (fraction); higher = more cells survive
[1] = tested on: NCI-H1993
Procedure, shortened: (§1)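 Lung cancer cell lines were seeded in 1536-well plates and dosed by pin tool the next day, with either a single drug or a fixed anchor-drug dose combined with five library-drug doses (not always all listed) spaced in √10 steps. Five days later, one step fixed the cells and stained their nuclei (final 0.05% Triton X-100, 1% formaldehyde, 1 ug/ml Hoechst), and nuclei were counted on 4× images. Relative viability is the nuclei count in treated wells divided by the count in vehicle wells, and each value is the median of duplicate plates.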

[2] = tested on: SK-LU-1
Procedure, shortened: as §1

[3] = tested on: EPLC-272H
Procedure, shortened: as §1

[4] = tested on: NCI-H1563
Procedure, shortened: as §1

[5] = tested on: LXF-289
Procedure, shortened: as §1

[6] = tested on: NCI-H2126
Procedure, shortened: as §1

[7] = tested on: NCI-H2023
Procedure, shortened: as §1

[8] = tested on: NCI-H1915
Procedure, shortened: as §1

[9] = tested on: SW 1573
Procedure, shortened: as §1

[10] = tested on: PC-14
Procedure, shortened: as §1

[11] = tested on: NCI-H322M
Procedure, shortened: as §1

Cc1sc2c(c1C)C(c1ccc(Cl)cc1)=N[C@@H](CC(=O)OC(C)(C)C)c1nnc(C)n1-2 [JQ1] + COc1cccc2cc(-c3nc([C@H]4CC[C@H](C(=O)O)CC4)n4ncnc(N)c34)[nH]c12 [OSI-027] (partner 0.5 µM)
relative viability ([1]; first compound 0.04 µM): 0.511 | relative viability ([1]; first compound 0.1265 µM): 0.608 | relative viability ([1]; first compound 0.4 µM): 0.623 | relative viability ([1]; first compound 1.265 µM): 0.537 | relative viability ([1]; first compound 4 µM): 0.538 | relative viability ([2]; first compound 0.04 µM): 0.381 | relative viability ([2]; first compound 0.1265 µM): 0.333 | relative viability ([2]; first compound 0.4 µM): 0.253 | relative viability ([2]; first compound 1.265 µM): 0.158 | relative viability ([2]; first compound 4 µM): 0.143 | relative viability ([3]; first compound 0.04 µM): 0.26 | relative viability ([3]; first compound 0.1265 µM): 0.336 | relative viability ([3]; first compound 0.4 µM): 0.275 | relative viability ([3]; first compound 1.265 µM): 0.237 | relative viability ([3]; first compound 4 µM): 0.248 | relative viability ([4]; first compound 0.04 µM): 0.735 | relative viability ([4]; first compound 0.1265 µM): 0.704 | relative viability ([4]; first compound 0.4 µM): 0.605 | relative viability ([4]; first compound 1.265 µM): 0.552 | relative viability ([4]; first compound 4 µM): 0.545 | relative viability ([5]; first compound 0.04 µM): 0.803 | relative viability ([5]; first compound 0.1265 µM): 0.695 | relative viability ([5]; first compound 0.4 µM): 0.614 | relative viability ([5]; first compound 1.265 µM): 0.297 | relative viability ([5]; first compound 4 µM): 0.173 | relative viability ([6]; first compound 0.04 µM): 0.712 | relative viability ([6]; first compound 0.1265 µM): 0.72 | relative viability ([6]; first compound 0.4 µM): 0.739 | relative viability ([6]; first compound 1.265 µM): 0.552 | relative viability ([6]; first compound 4 µM): 0.431 | relative viability ([7]; first compound 0.04 µM): 0.362 | relative viability ([7]; first compound 0.1265 µM): 0.377 | relative viability ([7]; first compound 0.4 µM): 0.262 | relative viability ([7]; first compound 1.265 µM): 0.142 | relative viability ([7]; first compound 4 µM): 0.148 | relative viability ([8]; first compound 0.04 µM): 0.609 | relative viability ([8]; first compound 0.1265 µM): 0.602 | relative viability ([8]; first compound 0.4 µM): 0.59 | relative viability ([8]; first compound 1.265 µM): 0.263 | relative viability ([8]; first compound 4 µM): 0.217 | relative viability ([9]; first compound 0.04 µM): 0.511 | relative viability ([9]; first compound 0.1265 µM): 0.475 | relative viability ([9]; first compound 0.4 µM): 0.371 | relative viability ([9]; first compound 1.265 µM): 0.229 | relative viability ([9]; first compound 4 µM): 0.233 | relative viability ([10]; first compound 0.04 µM): 0.713 | relative viability ([10]; first compound 0.1265 µM): 0.638 | relative viability ([10]; first compound 0.4 µM): 0.514 | relative viability ([10]; first compound 1.265 µM): 0.311 | relative viability ([10]; first compound 4 µM): 0.343 | relative viability ([11]; first compound 0.04 µM): 0.518 | relative viability ([11]; first compound 0.1265 µM): 0.589 | relative viability ([11]; first compound 0.4 µM): 0.477 | relative viability ([11]; first compound 1.265 µM): 0.321 | relative viability ([11]; first compound 4 µM): 0.339
